One data set has as its system Meloidogyne incognita. The experiment in a line: Meloidogyne incognita-Test, gall formation on salad seedlings. It counts as in vivo. The settings on record: 336 h, read-out: nematicidal activity (on the basis of gall formation). On the procedure: Meloidogyne incognita-Test
Solvent: 125.0 parts by weight of acetone
To produce a suitable preparation of active compound, 1 part by weight of active compound is mixed with the stated amount of solvent, and the concentrate is diluted with water to the desired concentration.
Vessels are filled with sand, a solution of the active ingredient, a suspension containing eggs and larvae of the southern root-knot nematode (Meloidogyne incognita) and salad seeds. The salad seeds germinate and the seedlings grow. Galls develop in the roots.
After 14 days the nematicidal activity is determined on the basis of the percentage of gall formation. 100% means no galls were found and 0% means the number of galls found on the roots of the treated plants was equal to that in untreated control plants.

Data set [1] has as its system Nippostrongylus brasiliensis. The experiment in a line: Nippostrongylus brasiliensis-Test (NIPOBR), in vitro efficacy, acetylcholine esterase readout. The settings on record: 10 μg/ml, read-out: activity (reduction of AChe compared to negative control). On the procedure:
Nippostrongylus brasiliensis-Test (NIPOBR) (In Vitro Efficacy Test)
Adult Nippostrongylus brasiliensis were washed with saline buffer containing 100 U/ml penicillin, 0.1 mg/ml streptomycin and 2.5 μg/ml amphotericin B. Test compounds were dissolved in DMSO, and worms were incubated in medium in a final concentration of 10 μg/ml. An aliquot of the medium was used to determine the acetylcholine esterase activity in comparison to a negative control. The principle of measuring acetylcholine esterase as readout for anthelmintic activity was described in Rapson et al (1986) and Rapson et al (1987).

In a further data set the test system is Cooperia curticei. The experiment in a line: microbe, parasite or virus in culture. The settings on record: 120 h, read-out: activity (larval mortality). On the procedure: Cooperia curticei-Test (COOPCU)
(§1) Solvent: dimethyl sulfoxide
(§2) To produce a suitable preparation of active compound, 10 mg of active compound are dissolved in 0.5 ml solvent, and the concentrate is diluted with “Ringer's solution” to the desired concentration.
Approximately 40 nematode larvae (Cooperia curticei) are transferred into a test tube containing the compound solution.
After 5 days percentage of larval mortality is recorded, 100% efficacy means all larvae are killed; 0% efficacy means no larvae are killed.

The subject of a further data set is Haemonchus contortus. The experiment in a line: Haemonchus contortus-Test (HAEMCO), larval mortality. The settings on record: 120 h, read-out: activity (larval mortality). On the procedure:
Haemonchus contortus-Test (HAEMCO)
as §1, §2
Approximately 40 larvae of the red stomach worm (Haemonchus contortus) are transferred into a test tube containing compound solution.
After 5 days percentage of larval mortality are recorded, 100% efficacy means all larvae are killed, 0% efficacy means no larvae are killed.

The term mortality denotes the percentage killed. By chromatographic logP is commonly meant lipophilicity estimated from chromatographic retention. Low values mean lower lipophilicity, high ones higher lipophilicity. Take `O=C(NCCc1ncc(-n2cccn2)cc1Cl)c1ccccc1C(F)(F)F` [Example 4, N-{2-[3-chloro-5-(1H-pyrazol-1-yl)pyridin-2-yl]ethyl}-2-(trifluoromethyl)benzamide]: in the data set on Meloidogyne incognita, the pest or weed control at 20 ppm worked out at 1%. Moreover, in data set [1], the inhibition at 10 µg/mL was ≥ 60%. Besides, the mortality at 20 ppm in the data set on Cooperia curticei and with Haemonchus contortus was 100% throughout. For the same molecule, in “physchem”, the chromatographic logP came out at 2.69.

Regarding `O=C(NCC(F)(F)c1ncc(-c2cncc(F)c2)cc1Cl)c1ccccc1C(F)(F)F` [Example 10], the pest or weed control at 20 ppm in the data set with Meloidogyne incognita is 1%. Also, in data set [1], the inhibition at 10 µg/mL is ≥ 60%. For the same molecule, the mortality at 20 ppm in the data set on Cooperia curticei and in the data set with Haemonchus contortus was 100% in each case. Besides, in “physchem”, the chromatographic logP came to 2.84.

For the molecule `O=C(NCC(F)(F)c1ncc(-c2cccnc2Cl)cc1Cl)c1ccccc1C(F)(F)F` [Example 14], the pest or weed control at 20 ppm in the data set on Meloidogyne incognita was found to be 1%. In addition, the inhibition at 10 µg/mL in data set [1] is ≥ 60%. For the same molecule, the mortality at 20 ppm with Cooperia curticei and with Haemonchus contortus was 100% throughout. The same molecule registered a chromatographic logP in the data set “physchem” of 3.

On to `O=C(NCC(F)(F)c1ncc(-c2cncc(Cl)c2)cc1Cl)c1ccccc1C(F)(F)F` [Example 15], for which the pest or weed control at 20 ppm with Meloidogyne incognita turned out to be 90%. The inhibition at 10 µg/mL in data set [1] was ≥ 60%. Further, the mortality at 20 ppm in the data set on Cooperia curticei and in the data set with Haemonchus contortus was 100% each time. The chromatographic logP in “physchem” is 3.17.

In the case of `O=C(NCC(F)(F)c1ncc(-c2ccc(F)nc2)cc1Cl)c1ccccc1C(F)(F)F` [Example 16], the pest or weed control at 20 ppm in the data set with Meloidogyne incognita came to 1%. Also, in data set [1], the inhibition at 10 µg/mL is ≥ 60%. Further, the mortality at 20 ppm with Cooperia curticei and in the data set on Haemonchus contortus was 100% in each case. This molecule also gave a chromatographic logP in the data set “physchem” of 3.02.

Consider `O=C(NCC(F)(F)c1ncc(-c2cc(Cl)nc(Cl)c2)cc1Cl)c1ccccc1C(F)(F)F` [Example 25], for which the pest or weed control at 20 ppm with Meloidogyne incognita stood at 1%. In addition, the inhibition at 10 µg/mL in data set [1] is ≥ 60%. Moreover, the mortality at 20 ppm in the data set with Cooperia curticei and in the data set with Haemonchus contortus was 100% each time. The molecule also had a chromatographic logP in the data set “physchem” of 3.84.

(Values after patent US9868719B2, “Compounds with pesticidal activity” (BAYER CROPSCIENCE AKTIENGESELLSCHAFT, priority 2013, dated 2018).)
